Measured values from EPA's ToxRefDB 2.

Experiments:
dog [1] = conditions: Chronic toxicity, beagle, Oral, Feed, dose end: 52 week, group: systemic
rat [2] = conditions: Multigenerational reproductive toxicity study, sprague dawley, Oral, Feed, dose end: 2 generation
mouse [3] = conditions: Carcinogenicity, cd1, Oral, Feed, dose end: 18 month, group: systemic
dog [4] = conditions: Subchronic oral toxicity in nonrodent, beagle, Feed, dose end: 13 week, group: systemic, systemic / pathology microscopic / intestine large / vacuolization + systemic / pathology microscopic / intestine small / vacuolization + …
rat [5] = conditions: Combined chronic toxicity/carcinogenicity, fischer, Oral, Feed, dose end: 24 month, group: systemic
mouse [6] = conditions: Subchronic oral toxicity in rodents, cd1, Feed, dose end: 13 week, group: systemic, systemic / pathology microscopic / adrenal gland / vacuolization cytoplasmic + systemic / pathology microscopic / bone marrow / …
rat [7] = conditions: Subchronic oral toxicity in rodents, fischer, Feed, dose end: 13 week, group: systemic, systemic / pathology microscopic / thyroid gland / vacuolization + systemic / organ weight / heart / nos
rat [8] = conditions: Subchronic oral toxicity in rodents, fischer, Feed, dose end: 3 month, group: systemic
rat [9] = conditions: Subchronic oral toxicity in rodents, other, Feed, dose end: 90 day, group: systemic
dog [10] = conditions: Subchronic oral toxicity in nonrodent, beagle, Feed, dose end: 90 day, group: systemic, systemic / clinical chemistry / alkaline phosphatase (alp/alk) / alkaline phosphatase (alp/alk) + systemic / organ weight / liver / absolute…
[11] = systemic / pathology microscopic / lymph node / vacuolization + systemic / pathology microscopic / spleen / vacuolization + systemic / organ…
[12] = group: offspring, systemic / in life observation / body weight / offspring (pup) weight
[13] = group: parental, systemic / organ weight / heart / absolute + systemic / organ weight / heart / relative to body weight + systemic / organ weight / kidney / …
[14] = group: reproductive, reproductive / offspring survival early / litter size / litter size + reproductive / offspring survival early / birth index / live birth …
[15] = systemic / pathology microscopic / thyroid gland / vacuolization
[16] = systemic / pathology microscopic / thyroid gland / vacuolization + systemic / clinical chemistry / alkaline phosphatase (alp/alk) / alkaline…
[17] = systemic / pathology microscopic / heart / cardiomyopathy + systemic / pathology microscopic / lymph node / histiocytosis + systemic / …
[18] = systemic / pathology microscopic / lymph node / histiocytosis + systemic / pathology microscopic / spleen / histiocytosis + systemic / …
[19] = systemic / pathology microscopic / liver / inclusion body intracytoplasmic

`CC[C@H]1CCC[C@H](O[C@H]2CC[C@H](N(C)C)[C@@H](C)O2)[C@@H](C)C(=O)C2=C[C@@H]3[C@@H](C=C(C)[C@@H]4C[C@@H](O[C@@H]5O[C@@H](C)[C@H](OC)[C@@H](OC)[C@H]5OC)C[C@@H]34)[C@@H]2CC(=O)O1.CC[C@H]1CCC[C@H](O[C@H]2CC[C@H](N(C)C)[C@@H](C)O2)[C@@H](C)C(=O)C2=C[C@@H]3[C@@H](C=C[C@@H]4C[C@@H](O[C@@H]5O[C@@H](C)[C@H](OC)[C@@H](OC)[C@H]5OC)C[C@@H]34)[C@@H]2CC(=O)O1` [Spinosad] showed an LOAEL (dog [1]; systemic / pathology microscopic / lymph node / vacuolization + systemic / pathology microscopic / spleen / vacuolization) of 8.22 mg/kg/day, an LEL (dog [1]; [11]) of 8.22 mg/kg/day and an NEL (dog [1]; [11]) of 2.72 mg/kg/day. For the same molecule, the NOAEL (dog [1]; [11]) was 2.72 mg/kg/day, the LEL (rat [2]; [12]) was 10 mg/kg/day and the NEL (rat [2]; [12]) was 3 mg/kg/day. For the same molecule, the NOAEL (rat [2]; group: offspring, systemic / in life observation / clinical signs / hemorrhagic perineal discharge) was 10 mg/kg/day, the LOAEL (rat [2]; group: offspring, systemic / in life observation / clinical signs / hemorrhagic perineal discharge + systemic / in life observation / body weight / offspring…) was 100 mg/kg/day and the LEL (rat [2]; [13]) was 100 mg/kg/day. For the same molecule, the LOAEL (rat [2]; [13]) was 100 mg/kg/day, the NEL (rat [2]; [13]) was 10 mg/kg/day and the NOAEL (rat [2]; [13]) was 10 mg/kg/day. For the same molecule, the NEL (rat [2]; [14]) was 10 mg/kg/day, the NOAEL (rat [2]; [14]) was 10 mg/kg/day and the LOAEL (rat [2]; group: reproductive, reproductive / offspring survival early / litter size / litter size + reproductive / reproductive performance / dystocia / dystocia) was 100 mg/kg/day. For the same molecule, the LEL (rat [2]; group: reproductive, reproductive / offspring survival early / litter size / litter size + reproductive / reproductive performance / dystocia / dystocia + …) was 100 mg/kg/day, the LOAEL (mouse [3]; systemic / hematology / leukocyte (wbc) count differential / leukocyte (wbc)) was 41.5 mg/kg/day and the NOAEL (mouse [3]; systemic / hematology / leukocyte (wbc) count differential / leukocyte (wbc) + systemic / organ weight / liver / relative to body weight + …) was 1.3 mg/kg/day. For the same molecule, the NEL (mouse [3]; systemic / organ weight / brain / relative to body weight) was 1.1 mg/kg/day, the LEL (mouse [3]; systemic / organ weight / brain / relative to body weight + systemic / in life observation / body weight / body weight + systemic / in life …) was 32.7 mg/kg/day and the LEL (dog [4]) was 9.73 mg/kg/day. It also gave an LOAEL (dog [4]) of 9.73 mg/kg/day, an NEL (dog [4]) of 4.89 mg/kg/day and an NOAEL (dog [4]) of 4.89 mg/kg/day. It also gave an LEL (rat [5]; [15]) of 9.5 mg/kg/day, an LOAEL (rat [5]; [15]) of 24.1 mg/kg/day and an NEL (rat [5]; [16]) of 2.4 mg/kg/day. It also gave an NOAEL (rat [5]; [16]) of 9.5 mg/kg/day, an LEL (mouse [6]) of 22.5 mg/kg/day and an LOAEL (mouse [6]) of 22.5 mg/kg/day. For the same molecule, the NEL (mouse [6]) was 7.5 mg/kg/day, the NOAEL (mouse [6]) was 7.5 mg/kg/day and the LEL (rat [7]) was 42.7 mg/kg/day. The LOAEL (rat [7]) was over 42.7 mg/kg/day, the NOAEL (rat [7]) was at least 42.7 mg/kg/day and the LOAEL (rat [8]; [17]) was 68.5 mg/kg/day. The NOAEL (rat [8]; [17]) was 33.9 mg/kg/day, the LEL (rat [8]; [18]) was 33.9 mg/kg/day and the NEL (rat [8]; [18]) was under 33.9 mg/kg/day.
For `COCC(=O)N(c1c(C)cccc1C)[C@H](C)C(=O)OC` [Metalaxyl-M], the LEL (rat [9]; [19]) was 44.8 mg/kg/day, the NEL (rat [9]; [19]) was 16.8 mg/kg/day and the LOAEL (rat [9]; systemic / pathology microscopic / liver / infiltration cellular + systemic / pathology microscopic / liver / inclusion body …) was 90.5 mg/kg/day. For the same molecule, the LEL (dog [10]) was 38.6 mg/kg/day, the LOAEL (dog [10]) was 38.6 mg/kg/day and the NEL (dog [10]) was 7.25 mg/kg/day. It also gave an NOAEL (dog [10]) of 7.25 mg/kg/day.
